Test results as given in patent US10064889B2, “Mercapto-modified biocompatible macromolecule derivatives with low degree of mercapto-modification and the cross-linked materials and uses thereof” (Bioregen Biomedical (Changzhou) Co., Ltd., priority 2010, dated 2018).

Test: Drug release from drug-containing disulfide-bond cross-linked hyaluronic acid hydrogel into phosphate buffer solution
Format: physicochemical
Conditions: 37° C., 100 rpm; for Cumulative release percentage of the drug: hydrogel 10 mg/ml hyaluronic acid, degree of mercapto-modification 3.97%
Experimental: In the preparation process of the disulfide-bond cross-linked hyaluronic acid hydrogel of Example 6 (having a concentration of hyaluronic acid of 10 mg/ml and a degree of mercapto-modification of 3.97%), 0.1-10 mg cortical hormones (e.g. Beclomethasone, Beclomethasone dipropionate, Budesonide, Dexamethasone, Prednisolone, and Prednisone) were added respectively to make the cortical hormones uniformly dispersed in the prepared cross-linked hydrogel.
10 ml phosphate buffer solution was added to 0.2 ml of the above drug-containing cross-linked hydrogel placed into a 15 ml plastic centrifugal tube. Then centrifugal tube was placed in a shaker (37° C., 100 rpm), and the ultraviolet absorption of the drugs in the supernatant was measured at regular intervals. The measurement wavelengths were as follows: Beclomethasone 246 nm, Beclomethasone dipropionate 240 nm, Budesonide 248 nm, Dexamethasone 242 nm, Prednisolone 248 nm, and Prednisone 244 nm.

Release behaviour from the hydrogel (in words) | Cumulative release percentage of the drug (7 days) [%] | Cumulative release percentage of the drug (14 days) [%] | Cumulative release percentage of the drug (21 days) [%] | SMILES
release was rarely detected | <1 | <1 | <1 | CCC(=O)OCC(=O)[C@@]1(OC(=O)CC)[C@@H](C)C[C@H]2[C@@H]3CCC4=CC(=O)C=C[C@]4(C)[C@@]3(Cl)[C@@H](O)C[C@@]21C [Beclomethasone dipropionate]
– | 68 | 87 | 94 | C[C@H]1C[C@H]2[C@@H]3CCC4=CC(=O)C=C[C@]4(C)[C@@]3(Cl)[C@@H](O)C[C@]2(C)[C@@]1(O)C(=O)CO [Beclomethasone]
released basically completely in 7 days | 95 | 100 | 100 | C[C@]12C=CC(=O)C=C1CC[C@@H]1[C@@H]2[C@@H](O)C[C@@]2(C)[C@H]1CC[C@]2(O)C(=O)CO [Prednisolone]
– | 86 | 99 | 100 | C[C@]12C=CC(=O)C=C1CC[C@@H]1[C@@H]2C(=O)C[C@@]2(C)[C@H]1CC[C@]2(O)C(=O)CO [Prednisone]
